One assay relates to HBV rcDNA. Description: HepDE19 assay with bDNA quantitation of HBV rcDNA. The conditions noted are these: HepDE19 assay, inhibition of formation of rcDNA; read-out: DE-19bDNA EC50. The format is cell-based, hepatitis B virus. In outline: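 HepDE19 cells (HepG2-derived, Tet-regulated HBV replication) were deprived of tetracycline and then exposed to compounds for 7 days at 37 °C in 0.5% DMSO, 8-point titration from 25 μM. rcDNA was quantified by bDNA and EC50/EC90 came from 4-parameter fits. CC50 was measured by CellTiter-Glo ATP content on replicate plates after 4 days.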
Broadly, the EC50 is the concentration that produces a half-maximal response. Regarding `COCCCN(C(=O)Nc1ccc(F)c(Cl)c1)C(C)c1c[nH]c(=O)c2ccccc12` (stereo not shown) [Compound 79], the EC50 came to 2.1 µM.
On the same count and under the same terms, in the case of `COCCCN(C(=O)Nc1ccc(F)c(Cl)c1)C(C)c1c[nH]c(=O)c2ccccc12` (stereo not shown) [Compound 80] it was 0.03 µM.

The assay is the same for the next values; noted with them: Hepatitis B virus, HepDE19, HepDE19 assay, inhibition of formation of rcDNA; read-out: DE-19bDNA EC50.
Turning to `COc1ncc(CNC(=O)Nc2ccc(F)c(Cl)c2)c2ccccc12` [Compound 6, 1-(3-Chloro-4-fluorophenyl)-3-((1-methoxyisoquinolin-4-yl)methyl)urea], the EC50 turned out to be 9 µM.
Still for that read-out and setting: in the case of `COc1ncc(CNC(=O)Nc2ccc(F)c(C)c2)c2ccccc12` [Compound 7, 1-(4-Fluoro-3-methylphenyl)-3-((1-methoxyisoquinolin-4-yl)methyl)urea] it was 12 µM; in that of `O=C(NCc1c[nH]c(=O)c2ccccc12)Nc1ccc(F)c(Cl)c1` [Compound 8, 1-(3-Chloro-4-fluorophenyl)-3-((1-oxo-1,2-dihydroisoquinolin-4-yl)methyl)urea], 6.8 µM; in that of `CCN(Cc1c[nH]c(=O)c2ccccc12)C(=O)Nc1ccc(F)c(Cl)c1` [Compound 9, 3-(3-Chloro-4-fluorophenyl)-1-ethyl-1-((1-oxo-1,2-dihydroisoquinolin-4-yl)methyl)urea], 0.16 µM.
With `C[C@@H](c1c[nH]c(=O)c2ccccc12)N(C)C(=O)Nc1ccc(F)c(Cl)c1` [Compound 13, 3-(3-Chloro-4-fluorophenyl)-1-methyl-1-(1-(1-oxo-1,2-dihydroisoquinolin-4-yl)ethyl)urea], the EC50 is 4.7 µM.
Same read-out and setting: the value for `C[C@H](c1c[nH]c(=O)c2ccccc12)N(C)C(=O)Nc1ccc(F)c(Cl)c1` [Compound 14, (R)-3-(3-chloro-4-fluorophenyl)-1-methyl-1-(1-(1-oxo-1,2-dihydroisoquinolin-4-yl)ethyl)urea] was 0.04 µM; that for `CCN(Cc1cnc(OC)c2ccccc12)C(=O)Nc1ccc(F)c(Cl)c1` [Compound 15, 3-(3-Chloro-4-fluorophenyl)-1-ethyl-1-((1-methoxyisoquinolin-4-yl)methyl)urea] was 1.2 µM.
Take `CCN(Cc1cncc2ccccc12)C(=O)Nc1ccc(F)c(Cl)c1` [Compound 16, 3-(3-Chloro-4-fluorophenyl)-1-ethyl-1-(isoquinolin-4-ylmethyl)urea]: the EC50 worked out at 1.7 µM.
Still for that read-out and setting: the value for `CCOc1ncc(CN(CC)C(=O)Nc2ccc(F)c(Cl)c2)c2ccccc12` [Compound 17, 3-(3-chloro-4-fluorophenyl)-1-((1-ethoxyisoquinolin-4-yl)methyl)-1-ethylurea] was 1.6 µM.
On the same count and under the same terms, in the case of `CCN(Cc1cn(C)c(=O)c2ccccc12)C(=O)Nc1ccc(F)c(Cl)c1` [Compound 18, 3-(3-Chloro-4-fluorophenyl)-1-ethyl-1-((2-methyl-1-oxo-1,2-dihydroisoquinolin-4-yl)methyl)urea] it was 0.26 µM; in that of `COc1ncc(CN(C(=O)Nc2ccc(F)c(Cl)c2)C(C)C)c2ccccc12` [Compound 19, 3-(3-Chloro-4-fluorophenyl)-1-isopropyl-1-((1-methoxyisoquinolin-4-yl)methyl)urea], 2.1 µM; in that of `CCCN(Cc1cnc(OC)c2ccccc12)C(=O)Nc1ccc(F)c(Cl)c1` [Compound 20, 3-(3-Chloro-4-fluorophenyl)-1-((1-methoxyisoquinolin-4-yl)methyl)-1-propylurea], 0.44 µM.
Still for that read-out and setting: in the case of `COc1ncc(CN(CCO)C(=O)Nc2ccc(F)c(Cl)c2)c2ccccc12` [Compound 21, 3-(3-Chloro-4-fluorophenyl)-1-(2-hydroxyethyl)-1-((1-methoxyisoquinolin-4-yl)methyl)urea] it was 18 µM.
Take `CC(C)N(Cc1c[nH]c(=O)c2ccccc12)C(=O)Nc1ccc(F)c(Cl)c1` [Compound 26, 3-(3-Chloro-4-fluorophenyl)-1-isopropyl-1-((1-oxo-1,2-dihydroisoquinolin-4-yl)methyl)urea]: the EC50 came out at 0.43 µM.
The same measure, in the same setting: the value for `O=C(Nc1ccc(F)c(Cl)c1)N(CCO)Cc1c[nH]c(=O)c2ccccc12` [Compound 27, 3-(3-Chloro-4-fluorophenyl)-1-(2-hydroxyethyl)-1-((1-oxo-1,2-dihydroisoquinolin-4-yl)methyl)urea] was 1 µM; that for `CCCN(Cc1c[nH]c(=O)c2ccccc12)C(=O)Nc1ccc(F)c(Cl)c1` [Compound 28, 3-(3-Chloro-4-fluorophenyl)-1-((1-oxo-1,2-dihydroisoquinolin-4-yl)methyl)-1-propylurea] was 0.06 µM; that for `CCN(Cc1cnc(OCCO)c2ccccc12)C(=O)Nc1ccc(F)c(Cl)c1` [Compound 29, 3-(3-Chloro-4-fluorophenyl)-1-ethyl-1-((1-(2-hydroxyethoxy)isoquinolin-4-yl)methyl)urea] was 4.2 µM.
Consider `COc1ncc(CN(CC2CC2)C(=O)Nc2ccc(F)c(Cl)c2)c2ccccc12` [Compound 31, 3-(3-Chloro-4-fluorophenyl)-1-(cyclopropylmethyl)-1-((1-methoxyisoquinolin-4-yl)methyl)urea], for which the EC50 amounted to 0.87 µM.
On to `Cc1cc(NC(=O)N(C)[C@H](C)c2c[nH]c(=O)c3ccccc23)ccc1F` [Compound 32, (R)-3-(4-Fluoro-3-methylphenyl)-1-methyl-1-(1-(1-oxo-1,2-dihydroisoquinolin-4-yl)ethyl)urea], for which the EC50 is 0.03 µM.
As to `CCCCN(Cc1cnc(OC)c2ccccc12)C(=O)Nc1ccc(F)c(Cl)c1` [Compound 33, 1-Butyl-3-(3-chloro-4-fluorophenyl)-1-((1-methoxyisoquinolin-4-yl)methyl)urea], the EC50 stood at 0.62 µM.
Take `COc1ncc(CN(C(=O)Nc2ccc(F)c(Cl)c2)C2CC2)c2ccccc12` [Compound 34, 3-(3-Chloro-4-fluorophenyl)-1-cyclopropyl-1-((1-methoxyisoquinolin-4-yl)methyl)urea]: the EC50 came to 3.7 µM.
Same read-out and setting: the value for `CCCN(C(=O)Nc1ccc(F)c(Cl)c1)[C@H](C)c1c[nH]c(=O)c2ccccc12` [Compound 35, (R)-3-(3-Chloro-4-fluorophenyl)-1-(1-(1-oxo-1,2-dihydroisoquinolin-4-yl)ethyl)-1-propylurea] was 0.01 µM; that for `COCCN(Cc1cnc(OC)c2ccccc12)C(=O)Nc1ccc(F)c(Cl)c1` [Compound 41, 3-(3-Chloro-4-fluorophenyl)-1-(2-methoxyethyl)-1-((1-methoxyisoquinolin-4-yl)methyl)urea] was 3.8 µM; that for `O=C(Nc1ccc(F)c(Cl)c1)N(Cc1c[nH]c(=O)c2ccccc12)C1CC1` [Compound 42, 3-(3-Chloro-4-fluorophenyl)-1-cyclopropyl-1-((1-oxo-1,2-dihydroisoquinolin-4-yl)methyl)urea] was 0.81 µM.
Still for that read-out and setting: in the case of `CCCN(C(=O)Nc1ccc(F)c(C)c1)[C@H](C)c1c[nH]c(=O)c2ccccc12` [Compound 43, (R)-3-(4-Fluoro-3-methylphenyl)-1-(1-(1-oxo-1,2-dihydroisoquinolin-4-yl)ethyl)-1-propylurea] it was 0.01 µM.
Consider `COCCCN(Cc1cnc(OC)c2ccccc12)C(=O)Nc1ccc(F)c(Cl)c1` [Compound 47, 3-(3-Chloro-4-fluorophenyl)-1-((1-methoxyisoquinolin-4-yl)methyl)-1-(3-methoxypropyl)urea], for which the EC50 amounted to 2 µM.
Same read-out and setting: the value for `COc1ncc(CN(Cc2ccccc2)C(=O)Nc2ccc(F)c(Cl)c2)c2ccccc12` [Compound 48, 1-Benzyl-3-(3-chloro-4-fluorophenyl)-1-((1-methoxyisoquinolin-4-yl)methyl)urea] was 2.1 µM; that for `CCCCN(Cc1c[nH]c(=O)c2ccccc12)C(=O)Nc1ccc(F)c(Cl)c1` [Compound 52, 1-Butyl-3-(3-chloro-4-fluorophenyl)-1-((1-oxo-1,2-dihydroisoquinolin-4-yl)methyl)urea] was 0.08 µM.
As to `CN(Cc1cnc(OCc2ncn(C)n2)c2ccccc12)C(=O)Nc1ccc(F)c(Cl)c1` [Compound 87, 3-(3-Chloro-4-fluorophenyl)-1-methyl-1-((1-((1-methyl-1H-1,2,4-triazol-3-yl)methoxy)isoquinolin-4-yl)methyl)urea], the EC50 was 0.47 µM.
Regarding `CN(Cc1cnc(OCc2ccccn2)c2ccccc12)C(=O)Nc1ccc(F)c(Cl)c1` [Compound 88, 3-(3-Chloro-4-fluorophenyl)-1-methyl-1-((1-(pyridin-2-ylmethoxy)isoquinolin-4-yl)methyl)urea], the EC50 came to 1.1 µM.
The same measure, in the same setting: in the case of `C[C@H](c1c[nH]c(=O)c2ccccc12)N(C)C(=O)Nc1ccc(F)c(C(F)(F)F)c1` [Compound 89, (R)-3-(4-Fluoro-3-(trifluoromethyl)phenyl)-1-methyl-1-(1-(1-oxo-1,2-dihydroisoquinolin-4-yl)ethyl)urea] it was 0.32 µM; in that of `C[C@H](c1c[nH]c(=O)c2ccccc12)N(C)C(=O)Nc1ccc(F)cc1` [Compound 90, (R)-3-(4-Fluorophenyl)-1-methyl-1-(1-(1-oxo-1,2-dihydroisoquinolin-4-yl)ethyl)urea], 0.46 µM; in that of `C[C@H](c1c[nH]c(=O)c2ccccc12)N(C)C(=O)Nc1cc(F)c(F)c(F)c1` [Compound 91, (R)-1-Methyl-1-(1-(1-oxo-1,2-dihydroisoquinolin-4-yl)ethyl)-3-(3,4,5-trifluorophenyl)urea], 0.16 µM.

Staying with this assay, now noted: Hepatitis B virus, HepDE19, read-out: DE-19bDNA EC50 (μM), HepDE19 assay, inhibition of formation of rcDNA.
On to `COCCN(Cc1c[nH]c(=O)c2ccccc12)C(=O)Nc1ccc(F)c(Cl)c1` [Compound 50, 3-(3-Chloro-4-fluorophenyl)-1-(2-methoxyethyl)-1-((1-oxo-1,2-dihydroisoquinolin-4-yl)methyl)urea], for which the EC50 amounted to 0.47 µM.
Consider `O=C(Nc1ccc(F)c(Cl)c1)N(Cc1c[nH]c(=O)c2ccccc12)CC1CC1` [Compound 53, 3-(3-Chloro-4-fluorophenyl)-1-(cyclopropylmethyl)-1-((1-oxo-1,2-dihydroisoquinolin-4-yl)methyl)urea], for which the EC50 turned out to be 0.16 µM.

These data come from patent US20230045421A1 (priority 2018, published 2023).
